Measured values published in patent publication US12173088B2, “Anti-microbial peptides” (priority 2018, dated 2024).
Values after ≈ are worked out from the molar mass of the structure shown. Square brackets hold non-standard residues; d marks the D form. Peptide text beside a SMILES is read from it.

What was measured:
[1] = test system: E. coli ampC E416-7; assay type: cell-based, Escherichia coli; conditions: Table 7
From the text: The bacterial strains used include the Gram-positive strains Staphylococcus aureus USA300 LAC, S. epidermidis 1457, and Bacillus subtilis 168, as well as the Gram-negative isolates Escherichia coli K12 and Acinetobacter baumannii B2367-12. Additional, drug resistance strains include Gram-positive Enterococcus faecium V286-17 (VRE) and S. aureus M838-17 (MRSA) and Gram-negative E. coli E423-17, E. coli E416-17 (ampC), and P. aeruginosa E411-17. Bacteria were cultivated in tryptic soy broth (TSB) (BD Bioscience, MD).
The antibacterial activity of peptides was evaluated using a standard broth microdilution protocol with minor modifications as described (Mishra, et al. (2012) J. Am. Chem. Soc., 134:12426-12429). In brief, logarithmic phase bacterial cultures (i.e., optical density at 600 nm≈0.5) were diluted to OD600 0.001 and partitioned into a 96-well polystyrene microplate at 90 μL per well. After treatment with 10 μL of peptide solutions two fold diluted to various concentrations, microplates were incubated at 37° C. overnight and read on a ChroMate® 4300 Microplate Reader at 630 nm (GMI, Ramsey, MN). […] To study the influence of medium conditions on the antimicrobial activity of peptides against S. aureus USA300, up to 200 mM sodium chloride (NaCl), 2 mM of calcium chloride, 5-10% of human serum, mouse plasma, fluid, or supernatants of tissue homogenates were included into the assays.

[2] = Hemolytic assay; assay type: cell-based, human; conditions: human, human red blood cells, 2% (v/v)
Procedure, shortened: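 HL50 marks the peptide level lysing half of a 2% (v/v) suspension of washed human erythrocytes after 1 h at 37 °C. Released hemoglobin measured at 545 nm, scaled between PBS (0%) and Triton X-100 (2% or 1%; 100%). Selectivity index computed as HL50 over MIC.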

[3] = test system: S. aureus M838-17 (MRSA); assay: microbe, parasite or virus in culture; assay type: cell-based, Staphylococcus aureus; conditions: M838-17; read-out: MIC S. aureus M838-17 (MRSA)
Procedure, shortened: (§1)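 Peptides were serially diluted two-fold against bacteria grown in tryptic soy broth to log phase (OD600 ≈0.5), then seeded at OD600 0.001. Plates were held overnight at 37° C and read at 630 nm. USA300 was also tested at pH 6.8, 7.2 and 8.0, with 150 mM NaCl or 5-10% serum, plasma or peritoneal fluid.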

[4] = test system: S. aureus USA300; assay: microbe, parasite or virus in culture; assay type: cell-based, Staphylococcus aureus
Procedure, shortened: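 Broth microdilution: log-phase cultures in tryptic soy broth diluted to OD600 0.001, exposed to two-fold diluted peptides at 37° C overnight, growth read at 630 nm. Medium effects on S. aureus USA300 tested with up to 200 mM NaCl, 2 mM CaCl2, 5-10% human serum, mouse plasma, fluids or tissue homogenate supernatants.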

[5] = test system: trypsin, chymotrypsin, S. aureus V8 protease, Proteinase K
Procedure: Briefly, a solution (100 μL) of peptide/protease molar ratio, 40:1 was made in 10 mM PBS buffer (pH 8.0) and was incubated at 37° C. Aliquots (10 μL) of the reaction solutions were taken after 1, 3 and 6 days and immediately mixed with 20 μL of 2×SDS loading buffer and boiled in a water bath to stop the reaction. For the SDS gel analysis, 10 μL of each sample was loaded to the well of a 5% stacking/18% resolving tricine gel and run at a constant current of 35 mA.

[6] = test system: P. aeruginosa E411-17; assay: microbe, parasite or virus in culture; assay type: cell-based, Pseudomonas aeruginosa; conditions: E411-17; read-out: MIC P. aeruginosa E411-17
Procedure, shortened: as §1

[7] = test system: E. coli E423-17; assay: microbe, parasite or virus in culture; assay type: cell-based, Escherichia coli; conditions: E423-17; read-out: MIC E. coli E423-17
Procedure, shortened: as §1

[8] = test system: P. aeruginosa PAO1; assay type: cell-based, Pseudomonas aeruginosa; conditions: PAO1
Procedure, shortened: (§2)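 Broth microdilution in tryptic soy broth: log-phase cultures (OD600 ≈0.5) diluted to OD600 0.001, given two-fold peptide dilutions, incubated overnight at 37° C. Growth read at 630 nm.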

[9] = test system: E. faecium V286-17 (VRE); assay: microbe, parasite or virus in culture; assay type: cell-based, Enterococcus faecium; conditions: V286-17 (VRE)
Procedure, shortened: as §1

[10] = test system: E. coli ATCC 25922; assay type: cell-based, Escherichia coli; conditions: ATCC 25922
Procedure, shortened: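 Peptides, serially diluted two-fold, were incubated overnight at 37 °C with E. coli ATCC 25922 from log-phase cultures adjusted to OD600 0.001. Turbidity at 630 nm served as the read-out in this broth microdilution format.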

[11] = test system: K. pneumoniae E406-17; assay: microbe, parasite or virus in culture; assay type: cell-based, Klebsiella pneumoniae; conditions: E406-17; read-out: MIC K. pneumoniae E406-17
Procedure, shortened: as §2

[12] = test system: S. aureus USA300; conditions: starting template; cited from earlier work

Row | Molecule | MIC E. coli ampC E416-7 [1] [µM] | HC50 at 1 h [2] [µM] | MIC [3] [µM] | MIC ([4]; USA300) [µM] | MIC ([4]; USA300, pH 6.8) [µM] | MIC ([4]; USA300, pH 7.4) [µM] | MIC ([4]; USA300, pH 8) [µM] | Protease stability [5] | MIC [6] [µM] | MIC [7] [µM] | MIC PA (P. aeruginosa PAO1) [8] [µM] | MIC E. faecium V286-17 (VRE) [9] [µM] | MIC EC (E. coli ATCC 25922) [10] [µM] | MIC [11] [µM] | MIC against MRSA [12] [µM]
1 | CC(C)C[C@@H](NC(=O)[C@@H](CC(C)C)NC(=O)[C@@H](CCCCN)NC(=O)[C@@H](CC(C)C)NC(=O)CNC(=O)[C@@H](CC(C)C)NC(=O)[C@@H](CO)NC(=O)[C@@H](CC(C)C)NC(=O)[C@@H](CC(C)C)NC(=O)[C@@H](CC(C)C)NC(=O)[C@@H](CCCCN)NC(=O)[C@@H](CC(C)C)NC(=O)CN)C(N)=O [DFT561d, GLKLLLSLGLKLL] (H-G[dL][dK][dL][dL][dL][dS][dL]G[dL][dK][dL][dL]-NH2; N-terminus and C-terminus assumed) | >50 | > 300 | 3.1 (≈ 4.28 µg/mL) | 3.1 (≈ 4.28 µg/mL) | 3.1 (≈ 4.28 µg/mL) | 1.6 (≈ 2.21 µg/mL) | 1.6 (≈ 2.21 µg/mL) | resistant to proteases | >50 | >50 | >25 | 3.1 to 6.25 | >25 | >50 | 
2 | temporin-SHf |  |  |  |  |  |  |  |  |  |  |  |  |  |  | 25
